Reference: patent US20130012432A1, “Peptides for Treatment of Obesity” (Novo Nordisk A/S, priority 2010, published 2013)
Values after ≈ are worked out from the molar mass of the structure shown. Positions of bridges follow the written chain, without caps; N, C: chain ends. Non-standard residues stand in square brackets, D forms with d. Residues, ends and D or L forms follow the SMILES beside them. Groups on a side chain read outwards from the residue. *: point of attachment. Palmitoyl(16-(5-tetrazolyl)) = O=C(CCCCCCCCCCCCCCCc1nnn[nH]1)*; Lys(CH2CO2H)2 = N[C@@H](CCCCN(CC(=O)O)CC(=O)O)C(=O)O; C16 diacid = O=C(O)CCCCCCCCCCCCCCC(=O)*; Orn = NCCC[C@H](N)C(=O)O; Dab = NCC[C@H](N)C(=O)O; AEEA = NCCOCCOCC(=O)O

Test: physchem
Experimental: From a stock solution in vehicle, either H2O or 10 mM phosphate, containing 1 mg (as weighed) compound per ml, 8-11 aliquots are withdrawn and pH-adjusted individually with HCl/NaOH, to cover the whole pH range.

| Structure (SMILES) | solubility (pH 6.7, Solubility Conc.) [µM] | solubility (pH 7.1, Solubility Conc.) [µM] | solubility (pH 7.3, Solubility Conc.) [µM] | solubility (pH 7.4, Solubility Conc.) [µM] | solubility (pH 7.5, Solubility Conc.) [µM] | solubility (pH 7.6, Solubility Conc.) [µM] | solubility (pH 7.8, Solubility Conc.) [µM] | solubility (pH 8, Solubility Conc.) [µM] | solubility (pH 5.8, Solubility Conc.) [µM] | solubility (pH 6.9, Solubility Conc.) [µM] | solubility (pH 7.2, Solubility Conc.) [µM] | solubility (pH 5.3, Solubility Conc.) [µM] | solubility (pH 6.1, Solubility Conc.) [µM] | solubility (pH 6.4, Solubility Conc.) [µM] | solubility (pH 6.5, Solubility Conc.) [µM] | solubility (pH 6.8, Solubility Conc.) [µM] | solubility (pH 7.7, Solubility Conc.) [µM] | solubility (pH 7.9, Solubility Conc.) [µM] | solubility (pH 6.3, Solubility Conc.) [µM] |
| --- | --- | --- | --- | --- | --- | --- | --- | --- | --- | --- | --- | --- | --- | --- | --- | --- | --- | --- | --- |
| CC(=O)N[C@H]1CCC(=O)NCC[C@@H](C(=O)N2CCC[C@H]2C(=O)N2CCC[C@H]2C(=O)N[C@@H](CCCNC(=N)N)C(=O)N[C@@H](CC(=O)O)C(=O)N[C@@H](CCCCN(CC(=O)O)CC(=O)O)C(=O)N[C@@H](CCCCNC(=O)COCCOCCNC(=O)CCCCCCCCCCCCCCCc2nnn[nH]2)C(N)=O)NC(=O)[C@H](Cc2c[nH]c3ccccc23)NC(=O)[C@H](CCCNC(=N)N)NC(=O)[C@@H](Cc2ccccc2)NC(=O)[C@H](Cc2c[nH]cn2)NC1=O [Example 16, Ac-c[Glu-His-D-Phe-Arg-Trp-Dab]-Pro-Pro-Arg-Asp-Lys(biscarboxymethyl)-Lys[(2-{2-[16-(tetrazol-5-yl)hexadecanoylamino]ethoxy}ethoxy)acetyl]-NH2] (Ac-EH[dF]RW[Dab]PPRD[Lys(CH2CO2H)2]K([AEEA-Palmitoyl(16-(5-tetrazolyl))])-NH2; lactam 1-6) | 42 (≈ 91.8 µg/mL) | 96 (≈ 210 µg/mL) | 191 (≈ 418 µg/mL) | 262 (≈ 573 µg/mL) | 357 (≈ 781 µg/mL) | 431 (≈ 942 µg/mL) | 409 (≈ 894 µg/mL) | 447 (≈ 977 µg/mL) | – | – | – | – | – | – | – | – | – | – | – |
| CC(=O)N[C@H]1CCCNC(=O)C[C@@H](C(=O)N2CCC[C@H]2C(=O)N2CCC[C@H]2C(=O)N[C@@H](CCCNC(=N)N)C(=O)N[C@@H](CC(=O)O)C(=O)N[C@@H](CCCCN(CC(=O)O)CC(=O)O)C(=O)N[C@@H](CCCCNC(=O)COCCOCCNC(=O)CCCCCCCCCCCCCCCc2nnn[nH]2)C(N)=O)NC(=O)[C@H](Cc2c[nH]c3ccccc23)NC(=O)[C@H](CCCNC(=N)N)NC(=O)[C@@H](Cc2ccccc2)NC(=O)[C@H](Cc2c[nH]cn2)NC1=O [Example 17, Ac-c[Orn-His-D-Phe-Arg-Trp-Asp]-Pro-Pro-Arg-Asp-Lys(biscarboxymethyl)-Lys[(2-{2-[16-(tetrazol-5-yl)hexadecanoylamino]ethoxy}ethoxy)acetyl]-NH2] (Ac-[Orn]H[dF]RWDPPRD[Lys(CH2CO2H)2]K([AEEA-Palmitoyl(16-(5-tetrazolyl))])-NH2; lactam 1-6) | 45 (≈ 98.4 µg/mL) | – | 428 (≈ 936 µg/mL) | 490 (≈ 1070 µg/mL) | – | – | 470 (≈ 1030 µg/mL) | 487 (≈ 1060 µg/mL) | 25 (≈ 54.7 µg/mL) | 75 (≈ 164 µg/mL) | 297 (≈ 649 µg/mL) | – | – | – | – | – | – | – | – |
| CC(=O)N[C@H]1CCC(=O)NCCC[C@@H](C(=O)N2CCC[C@H]2C(=O)N2CCC[C@H]2C(=O)N[C@@H](CCCNC(=N)N)C(=O)N[C@@H](CC(=O)O)C(=O)N[C@@H](CCCCN(CC(=O)O)CC(=O)O)C(=O)N[C@@H](CCCCNC(=O)COCCOCCNC(=O)CCCCCCCCCCCCCCC(=O)O)C(N)=O)NC(=O)[C@H](Cc2c[nH]c3ccccc23)NC(=O)[C@H](CCCNC(=N)N)NC(=O)[C@@H](Cc2ccccc2)NC(=O)[C@H](Cc2cnc[nH]2)NC1=O [Example 18, Ac-c[Glu-His-D-Phe-Arg-Trp-Orn]-Pro-Pro-Arg-Asp-Lys(biscarboxymethyl)-Lys({2-[2-(15-carboxypentadecanoylamino)ethoxy]ethoxy}acetyl)-NH2] (Ac-EH[dF]RW[Orn]PPRD[Lys(CH2CO2H)2]K([AEEA-C16 diacid])-NH2; lactam 1-6) | – | 484 (≈ 1050 µg/mL) | – | 449 (≈ 971 µg/mL) | – | – | – | – | – | – | – | 193 (≈ 417 µg/mL) | 310 (≈ 670 µg/mL) | 326 (≈ 705 µg/mL) | 392 (≈ 848 µg/mL) | 447 (≈ 967 µg/mL) | 451 (≈ 975 µg/mL) | 474 (≈ 1030 µg/mL) | – |
| CC(=O)N[C@H]1CCCNC(=O)C[C@@H](C(=O)N2CCC[C@H]2C(=O)N2CCC[C@H]2C(=O)N[C@@H](CCCNC(=N)N)C(=O)N[C@@H](CCC(=O)O)C(=O)N[C@@H](CCCCN(CC(=O)O)CC(=O)O)C(=O)N[C@@H](CCCCNC(=O)COCCOCCNC(=O)CCCCCCCCCCCCCCCc2nnn[nH]2)C(N)=O)NC(=O)[C@H](Cc2c[nH]c3ccccc23)NC(=O)[C@H](CCCNC(=N)N)NC(=O)[C@@H](Cc2ccccc2)NC(=O)[C@H](Cc2c[nH]cn2)NC1=O [Example 19, Ac-c[Orn-His-D-Phe-Arg-Trp-Asp]-Pro-Pro-Arg-Glu-Lys(biscarboxymethyl)-Lys[(2-{2-[16-(tetrazol-5-yl)hexadecanoylamino]ethoxy}ethoxy)acetyl]-NH2] (Ac-[Orn]H[dF]RWDPPRE[Lys(CH2CO2H)2]K([AEEA-Palmitoyl(16-(5-tetrazolyl))])-NH2; lactam 1-6) | 38 (≈ 83.6 µg/mL) | – | 447 (≈ 984 µg/mL) | – | 474 (≈ 1040 µg/mL) | – | – | – | – | 70 (≈ 154 µg/mL) | 433 (≈ 953 µg/mL) | – | – | – | – | – | 517 (≈ 1140 µg/mL) | 441 (≈ 970 µg/mL) | 26 (≈ 57.2 µg/mL) |
